Data on twelve molecules can be found in patent US11590142B2, “Oxazolidinone antibiotic compounds and process of preparation” (Bugworks Research, Inc., priority 2018, dated 2023).

The structures appear in SMILES notation. In brackets after ≈: the same amount, converted by molar mass. Bounds are passed on as bounds.

Common to all, as to format: cell-based
Series [1] relates to Acinetobacter baumannii ATCC 19606. Nature of the series: Minimum Inhibitory Concentration (MIC) in LB media. Particulars: ATCC19606. The method, then:
(§1) Biological Activity (Antibacterial activity): The compounds of Formula (I) are of interest due to their potent antibacterial effects. […] The medium sterility is checked by incubating at 37° C. for a period of 48 h. Bacterial cultures that are stored as glycerol stocks at -80° C. are sub cultured on LB agar plates to obtain isolated colonies. A single colony of each strain is cultured in LB broth. The cultures are incubated at 37° C., 200 rpm till they reach an optical density (OD at 600 nm) of 0.8 to 1. […] Test compounds are dissolved in dimethyl sulfoxide (DMSO) to a stock concentration of 4 mg/mi. A twofold dilution series of this DMSO stock is prepared in a 96 well V bottom microtitre plate from rows A to H. A 3 μL volume of these dilutions are transferred to a 96-well flat bottom microtitre assay plate. Controls to monitor the effects of DMSO and media sterility are included. Each well is inoculated with 150 μL of the above diluted culture. The plates are incubated at 37° C. overnight in a humidified incubator. The following morning, the plates are read using a Spectrophotometer at 600 nm wavelength.

The subject of series [2] is Enterococcus faecalis ATCC 29212. Nature of the series: Minimum Inhibitory Concentration (MIC) in LB media. Particulars: ATCC29212, read-out: Minimum Inhibitory Concentration E. faecalis ATCC 29212. The method, then: as §1
Series [3] relates to Escherichia coli ATCC 25922. Nature of the series: Minimum Inhibitory Concentration (MIC) in LB media. As to conditions: ATCC25922, read-out: Minimum Inhibitory Concentration E. coli ATCC 25922. The method, then: as §1
Series [4] deals with Klebsiella pneumoniae ATCC 13883. Nature of the series: Minimum Inhibitory Concentration (MIC) in LB media. As to conditions: ATCC13883, read-out: Minimum Inhibitory Concentration K. pneumoniae ATCC 13883. Here is the method:
as §1

The subject of series [5] is Pseudomonas aeruginosa ATCC 27853. Nature of the series: Minimum Inhibitory Concentration (MIC) in LB media. Particulars: ATCC27853, read-out: Minimum Inhibitory Concentration P. aurigenosa ATCC 27853. Here is the method: as §1
Series [6] relates to Staphylococcus aureus ATCC 29213. Nature of the series: Minimum Inhibitory Concentration (MIC) in LB media. As to conditions: ATCC29213, read-out: Minimum Inhibitory Concentration S. aureus ATCC 29213. Here is the method: as §1
In series [7] the target is human ether a go-go related gene (hERG) K+ channel (Homo sapiens (Human), UniProt Q12809). Nature of the series: hERG inhibition assay, QPatch HTX automated electrophysiology. Particulars: CHO cell line stably expressing hERG, whole-cell patch clamp, maximum test concentration 300 μM. The method, then: The compounds were tested for inhibition of the human ether a go-go related gene (hERG) K+ channel using QPatch HTX automated electrophysiology. […] Compounds were solubilised to 100 mM in DMSO before dilution in HBPS to 300 μM. […] Electrophysiological recordings were made from a Chinese Hamster Ovary cell line stably expressing the full-length hERG potassium channel. Single cell ionic currents were measured in whole-cell patch clamp configuration at room temperature (21-23° C.) using the QPatch HTX platform (Sophion). Intracellular solution contained (mM): 120 KF, 20 KCl, 10 EGTA, 10 HEPES and was buffered to pH 7.3. […] Cells were clamped at a holding potential of −80 mV. Cells were stepped to +20 mV for 2 s then −40 mV for 3s before returning to the holding potential. This sweep was repeated 10 times at 10 s intervals. hERG currents were measured from the tail step and referenced to the holding current. Compounds were then incubated for 2 minutes prior to a second measurement of ion channel current using an identical pulse train.
Background: Block of hERG is tested as a sign of cardiac risk.

Sequence of human ether a go-go related gene (hERG) K+ channel (Q12809 whole entry): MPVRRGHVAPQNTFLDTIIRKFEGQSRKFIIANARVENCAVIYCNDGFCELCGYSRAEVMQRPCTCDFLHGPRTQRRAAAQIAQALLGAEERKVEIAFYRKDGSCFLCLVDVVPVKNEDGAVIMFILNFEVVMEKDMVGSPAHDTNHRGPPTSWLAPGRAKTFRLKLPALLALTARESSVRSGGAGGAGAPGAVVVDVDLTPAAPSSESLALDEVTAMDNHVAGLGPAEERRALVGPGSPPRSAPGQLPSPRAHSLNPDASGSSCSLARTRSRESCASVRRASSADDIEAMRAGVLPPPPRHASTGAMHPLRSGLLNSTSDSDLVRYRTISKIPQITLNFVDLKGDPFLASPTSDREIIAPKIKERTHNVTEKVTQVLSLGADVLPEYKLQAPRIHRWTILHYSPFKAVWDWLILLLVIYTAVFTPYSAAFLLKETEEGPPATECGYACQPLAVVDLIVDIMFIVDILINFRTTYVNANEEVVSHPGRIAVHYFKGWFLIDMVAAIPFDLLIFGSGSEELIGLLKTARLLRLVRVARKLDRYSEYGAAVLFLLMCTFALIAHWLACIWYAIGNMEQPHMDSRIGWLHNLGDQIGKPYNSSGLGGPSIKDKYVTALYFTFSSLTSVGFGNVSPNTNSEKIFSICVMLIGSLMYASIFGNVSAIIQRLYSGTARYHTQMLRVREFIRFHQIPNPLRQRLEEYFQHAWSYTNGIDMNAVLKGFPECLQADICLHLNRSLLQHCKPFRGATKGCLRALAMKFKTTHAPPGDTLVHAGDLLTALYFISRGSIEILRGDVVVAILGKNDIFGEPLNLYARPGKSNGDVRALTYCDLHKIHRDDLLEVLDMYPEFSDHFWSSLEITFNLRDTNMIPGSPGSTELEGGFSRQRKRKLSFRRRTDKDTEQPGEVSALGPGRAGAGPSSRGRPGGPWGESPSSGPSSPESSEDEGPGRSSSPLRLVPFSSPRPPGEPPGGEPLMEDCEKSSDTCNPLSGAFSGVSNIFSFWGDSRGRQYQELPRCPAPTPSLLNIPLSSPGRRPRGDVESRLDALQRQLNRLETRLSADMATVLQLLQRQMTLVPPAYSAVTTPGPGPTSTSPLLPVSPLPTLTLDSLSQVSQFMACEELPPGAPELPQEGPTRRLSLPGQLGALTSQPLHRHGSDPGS

As to `O=C(O)c1cn(C2CC2)c2cc(N3CCNCC3)c(F)cc2c1=O` [Ciprofloxacin, reference compound], the MIC in series [1] was 0.4 µg/mL (≈ 1.21 µM); in series [2], 0.4 µg/mL (≈ 1.21 µM); in series [3], 0.012 µg/mL (≈ 0.0362 µM); in series [4], 0.05 µg/mL (≈ 0.151 µM); in series [5] it was 0.1 µg/mL (≈ 0.302 µM); in series [6], 0.4 µg/mL (≈ 1.21 µM).

For `Cn1c(=O)cnc2ccc(OCCNCCC3CN(c4ccc5c(n4)NC(=O)CO5)C(=O)O3)nc21` (stereo not shown) [Compound 1, 6-(5-(2-((2-((4-methyl-3-oxo-3,4-dihydropyrido[2,3-b]pyrazin-6-yl)oxy)ethyl)amino)ethyl)-2-oxooxazolidin-3-yl)-2H-pyrido[3,2-b][1,4]oxazin-3(4H)-one], the MIC was 0.06 µg/mL (≈ 0.125 µM) in series [1]; 0.5 µg/mL (≈ 1.04 µM) in series [2]; 0.06 µg/mL (≈ 0.125 µM) in series [3]; 0.25 µg/mL (≈ 0.519 µM) in series [4]; 1 µg/mL (≈ 2.08 µM) in series [5]; 0.13 µg/mL (≈ 0.27 µM) in series [6].

On to `Cn1c(=O)ccc2ncc(OCCNCCC3CN(c4ccc5c(n4)NC(=O)CO5)C(=O)O3)nc21` (stereo not shown) [Compound 2, 6-(5-(2-((2-((5-methyl-6-oxo-5,6-dihydropyrido[2,3-b]pyrazin-3-yl)oxy)ethyl)amino)ethyl)-2-oxooxazolidin-3-yl)-2H-pyrido[3,2-b][1,4]oxazin-3(4H)-one], for which the MIC in series [1] was 0.06 µg/mL (≈ 0.125 µM); in series [2], 1 µg/mL (≈ 2.08 µM); in series [3], 0.13 µg/mL (≈ 0.27 µM); in series [4], 0.25 µg/mL (≈ 0.519 µM); in series [5], 0.5 µg/mL (≈ 1.04 µM); in series [6], 0.06 µg/mL (≈ 0.125 µM).

As to `Cn1c(=O)cnc2ccc(OCCNC[C@H]3CN(c4ccc5c(n4)NC(=O)CO5)C(=O)O3)nc21` [Compound 3, (S)-6-(5-(((2-((4-methyl-3-oxo-3,4-dihydropyrido[2,3-b]pyrazin-6-yl)oxy)ethyl)amino)methyl)-2-oxooxazolidin-3-yl)-2H1-pyrido[3,2-b][1,4]oxazin-3(4H)-one], the MIC in series [1] came to 0.06 µg/mL (≈ 0.128 µM); in series [2], 0.25 µg/mL (≈ 0.535 µM); in series [3], 0.06 µg/mL (≈ 0.128 µM); in series [4] it was 0.25 µg/mL (≈ 0.535 µM); in series [5], 2 µg/mL (≈ 4.28 µM); in series [6], 0.06 µg/mL (≈ 0.128 µM). In addition, it took 40 µM to reach half-maximal inhibition in series [7] (IC50).

Consider `Cn1c(=O)cnc2ccc(OCCNC[C@@H]3CN(c4ccc5c(n4)NC(=O)CO5)C(=O)O3)nc21` [Compound 4, (R)-6-(5-(((2-((4-methyl-3-oxo-3,4-dihydropyrido[2,3-b]pyrazin-6-yl)oxy)ethyl)amino)methyl)-2-oxooxazolidin-3-yl)-2H-pyrido[3,2-b][1,4]oxazin-3(4H)-one], for which the MIC in series [1] amounted to 0.06 µg/mL (≈ 0.128 µM); in series [2] it was 0.25 µg/mL (≈ 0.535 µM); in series [3] it was 0.06 µg/mL (≈ 0.128 µM); in series [4] it was 0.25 µg/mL (≈ 0.535 µM); in series [5], 2 µg/mL (≈ 4.28 µM); in series [6], 0.06 µg/mL (≈ 0.128 µM). Besides, in series [7], the IC50 (in general, the concentration that gives 50% inhibition) came to 38 µM.

In the case of `Cn1c(=O)ccc2ncc(OCCNC[C@H]3CN(c4ccc5c(n4)NC(=O)CO5)C(=O)O3)nc21` [Compound 5, (S)-6-(5-(((2-((5-methyl-6-oxo-5,6-dihydropyrido[2,3-b]pyrazin-3-yl)oxy)ethyl)amino)methyl)-2-oxooxazolidin-3-yl)-2H1-pyrido[3,2-b][1,4]oxazin-3(4H)-one], the MIC in series [1] worked out at 0.25 µg/mL (≈ 0.535 µM); in series [2], 0.5 µg/mL (≈ 1.07 µM); in series [3], 0.25 µg/mL (≈ 0.535 µM); in series [4], 0.25 µg/mL (≈ 0.535 µM); in series [5], 4 µg/mL (≈ 8.56 µM); in series [6], 0.25 µg/mL (≈ 0.535 µM). Also, in series [7], inhibition was half-maximal at 82 µM (IC50).

Take `Cn1c(=O)ccc2ncc(OCCNC[C@@H]3CN(c4ccc5c(n4)NC(=O)CO5)C(=O)O3)nc21` [Compound 6, (R)-6-(5-(((2-((5-methyl-6-oxo-5,6-dihydropyrido[2,3-b]pyrazin-3-yl)oxy)ethyl)amino)methyl)-2-oxooxazolidin-3-yl)-2H-pyrido[3,2-b][1,4]oxazin-3(4H)-one]: the MIC in series [1] was determined as 0.13 µg/mL (≈ 0.278 µM); in series [2], 0.25 µg/mL (≈ 0.535 µM); in series [3], 0.13 µg/mL (≈ 0.278 µM); in series [4] it was 0.25 µg/mL (≈ 0.535 µM); in series [5], 2 µg/mL (≈ 4.28 µM); in series [6] it was 0.13 µg/mL (≈ 0.278 µM). In series [7], this molecule yielded an IC50 of 60 µM.

With `Cn1c(=O)cnc2ccc(OCCNC[C@@H]3CN(c4cnc5c(n4)NC(=O)CO5)C(=O)O3)nc21` [Compound 8, (R)-6-(5-(((2-((4-methyl-3-oxo-3,4-dihydropyrido[2,3-b]pyrazin-6-yl)oxy)ethyl)amino)methyl)-2-oxooxazolidin-3-yl)-2H1-pyrazino[2,3-b][1,4]oxazin-3(4H)-one], the MIC in series [1] was found to be 0.5 µg/mL (≈ 1.07 µM); in series [2], 0.5 µg/mL (≈ 1.07 µM); in series [3], 0.06 µg/mL (≈ 0.128 µM); in series [4], 0.25 µg/mL (≈ 0.534 µM); in series [5] it was 1 µg/mL (≈ 2.13 µM); in series [6], 0.125 µg/mL (≈ 0.267 µM). Moreover, the IC50 in series [7] is more than 300 µM.

As to `Cn1c(=O)cnc2cc(F)c(OCCNC[C@H]3CN(c4cnc5c(n4)NC(=O)CO5)C(=O)O3)nc21` [Compound 10, (S)-6-(5-(((2-((7-fluoro-4-methyl-3-oxo-3,4-dihydropyrido[2,3-b]pyrazin-6-yl)oxy)ethyl)amino)methyl)-2-oxooxazolidin-3-yl)-2H-pyrazino[2,3-b][1,4]oxazin-3(4H)-one], the MIC in series [1] came out at 0.5 µg/mL (≈ 1.03 µM); in series [2], 0.25 µg/mL (≈ 0.514 µM); in series [3] it was 0.06 µg/mL (≈ 0.123 µM); in series [4] it was 0.25 µg/mL (≈ 0.514 µM); in series [5], 1 µg/mL (≈ 2.06 µM); in series [6], 0.06 µg/mL (≈ 0.123 µM). The same molecule showed an IC50 in series [7] of more than 300 µM.

`CCn1c(=O)cnc2ccc(OCCNC[C@H]3CN(c4cnc5c(n4)NC(=O)CO5)C(=O)O3)nc21` [Compound 11, (S)-6-(5-(((2-((4-ethyl-3-oxo-3,4-dihydropyrido[2,3-b]pyrazin-6-yl)oxy)ethyl)amino)methyl)-2-oxooxazolidin-3-yl)-2H-pyrazino[2,3-b][1,4]oxazin-3(4H)-one]: the MIC in series [1] is 0.5 µg/mL (≈ 1.04 µM); in series [2], 1 µg/mL (≈ 2.07 µM); in series [3], 0.125 µg/mL (≈ 0.259 µM); in series [4] it was 0.5 µg/mL (≈ 1.04 µM); in series [5], 2 µg/mL (≈ 4.15 µM); in series [6], 0.03 µg/mL (≈ 0.0622 µM).

`Cn1c(=O)cnc2cc(Cl)c(OCCNC[C@H]3CN(c4cnc5c(n4)NC(=O)CO5)C(=O)O3)nc21` [Compound 12, (S)-6-(5-(((2-((7-Chloro-4-methyl-3-oxo-3,4-dihydropyrido[2,3-b]pyrazin-6-yl)oxy)ethyl)amino)methyl)-2-oxooxazolidin-3-yl)-2H-pyrazino[2,3-b][1,4]oxazin-3(4H)-one]: the MIC in series [1] is 0.5 µg/mL (≈ 0.994 µM); in series [2], 0.25 µg/mL (≈ 0.497 µM); in series [3], 0.125 µg/mL (≈ 0.249 µM); in series [4] it was 0.25 µg/mL (≈ 0.497 µM); in series [5], 4 µg/mL (≈ 7.95 µM); in series [6] it was 0.125 µg/mL (≈ 0.249 µM). This molecule also registered an IC50 in series [7] of 98 µM.

On to `Cn1c(=O)cnc2ccc(OCCNC[C@H]3CN(c4cnc5c(n4)NC(=O)CS5)C(=O)O3)nc21` [Compound 13, (S)-5-(((2-((4-Methyl-3-oxo-3,4-dihydropyrido[2,3-b]pyrazin-6-yl)oxy)ethyl)amino)methyl)-3-(3-oxo-3,4-dihydro-2H-pyrazino[2,3-b][1,4]thiazin-6-yl)oxazolidin-2-one], for which the MIC in series [1] was 0.03 µg/mL (≈ 0.0619 µM); in series [2], 0.1 µg/mL (≈ 0.206 µM); in series [3] it was 0.03 µg/mL (≈ 0.0619 µM); in series [4], 0.03 µg/mL (≈ 0.0619 µM); in series [5] it was 0.5 µg/mL (≈ 1.03 µM); in series [6], not above 0.03 µg/mL.
